# Several values for one entry are separate records, joined by “and”; a condition that tells them apart may be missing. Equal entries are not always repeated. Where two headings read alike, the source gives them in different places.
# Legend:
# EV71 [1] = test: Antiviral activity against EV71 in mice, virus copies in hind limb muscle by qRT-PCR; format: in vivo, ICR suckling mice
# From the text: (§1) • (1) 8 2-day-old ICR mice were randomly divided into two groups, 4 in each group.
# CVA16 = test: Antiviral activity against CVA16 in mice, virus copies in muscle by qRT-PCR; format: in vivo, ICR suckling mice; settings: 10 mg/kg i.p. every 12 h for 5 days vs PBS
# From the text: as §1
# 3. The Procedure for Detecting the Antiviral Activity of P1 Against CVA16 in Mice is Similar as the EV71 Experiment.
# 3. The Procedure for Detecting the Antiviral Activity of CR Against CVA16 in Mice is Similar to the EV71 Experiment.
# EV71 [2] = format: cell-based, enterovirus 71; settings: EV71 0.1 MOI, RD cells, 24 h; for Virus inhibition rate (%): CCK-8
# Description: • (1) 293T cells were plated in a 24-well cell plate. • (2) After the cells reached 70%-80% confluence, the MEM medium containing 10% serum was replaced with a MEM medium containing 2% serum (0.5 ml/well), and 5 μl of 10^6 PFU/mL EV71 virus per well was added. • (3) After 1 hour, polypeptides P2, 3A-TAT-EP, 3A-EP-DRI and 3A-EP-PEG-PA were added at a final concentration of 0.01 μM, 0.1 μM, 1 μM, and 10 μM, respectively. • (4) Samples were collected 24 hours after virus infection, and RNA was extracted with a total RNA extraction kit. • (5) The supernatant in each well was discarded, then 350 μl of TRK Lysis Buffer was added to the well and the plate was shaken on the shaker for 5 minutes. • (6) 350 μl of 70% ethanol (DEPC-treated) was added to the well and the plate was shaken on the shaker for 5 minutes. • (7) The mixture in the well was transferred to a RNA extraction column and centrifuged at 12000 g for 1 min. • (8) The solution collected in the recovery tube was added back to the column and centrifuged at 12,000 g for 1 min. • (9) RNA washing buffer 1 was added to the column and centrifuged at 12,000 g for 30 s. • (10) RNA washing buffer 2 was added to the column and centrifuged at 12,000 g for 1 min. • (11) Step (10) was repeated once. • (12) The empty column was centrifuged at 12,000 g for 2 min to completely remove residual RNA washing buffer. • (13) 50 μl DEPC-treated water was added to the column and centrifuge at 12000 g for 2 min. • (14) 2 μl RNA sample was used according to one step qRT-PCR kit for fluorescence quantification experiment. 3. […] Each concentration was tested in triplicate. • (3) The diluted virus solution was added to the plate of step (1), 100 μL per well with the final virus concentration was 0.1 MOI. Wells without polypeptide and virus (well without treatment), wells with virus only were used as controls. • (4) The mixture of step (2) was added to the 96-well plate plated with cells in step (1) and incubated in 5% CO2 at 37° C. for 24 h. Then CCK8 kit was used to determine the inhibitory effect of the polypeptide on virus. • (5) The inhibition rate of different concentrations of polypeptides on viral infection was calculated using the following formula: OD means the value of OD450-OD630, inhibition rate=(OD well with treatment−OD well with virus only)×100%/(OD well without treatment−OD well with virus only)
# • (1) RD cells in good growth state were plated in a 96-well plate. • (2) After the cells reached 70%-80% confluence, the MEM medium containing 10% serum was replaced with a MEM medium containing 2% serum. Group without polypeptide and virus, and group with virus but without polypeptide were included as controls. The final virus concentration was 0.1 MOI. • (3) 1 h later, polypeptide CR at a final concentration of 5 μM, 2.5 μM, 1.25 μM, 0.625 μM, 0.3125 μM, and 0.15625 μM was added, respectively. Group without polypeptide and virus, and group with virus but without polypeptide were set as controls. • (4) 24 hours after virus infection, when the change in the control group with only virus was obvious, 10 μl of viable cell detection agent CCK-8 was added to each well and mixed well. • (5) The plate was incubated at 37° C. for 2 h. • (6) The absorbance value at OD450 was measured with a microplate reader. Inhibition rate of polypeptide=(OD well with treatment−OD well with virus only)×100%/(OD well without treatment−OD well with virus only), OD refers to the value of OD450-OD630.
# • (1) RD cells in good growth state were plated in a 96-well plate. • (2) After the cells reached 70%-80% confluence, the MEM medium containing 10% serum was replaced with a MEM medium containing 2% serum. Group without polypeptide and virus, and group with virus but without polypeptide were included as controls. The final virus concentration was 0.1 MOI. • (3) 1 h later, polypeptide CR at a final concentration of 2.5 μM, 1.25 μM, 0.625 μM, 0.3125 μM, and 0.15625 μM was added, respectively. […]
structure (smiles),measurement,setting,value
N=C(N)NCCC[C@H](NC(=O)[C@H](CS)NC(=O)CNC(=O)[C@H](CO)NC(=O)CNC(=O)[C@H](CCCNC(=N)N)NC(=O)[C@H](CCCNC(=N)N)NC(=O)[C@H](CCCNC(=N)N)NC(=O)[C@H](CCC(N)=O)NC(=O)[C@H](CCCNC(=N)N)NC(=O)[C@H](CCCNC(=N)N)NC(=O)[C@H](CCCCN)NC(=O)[C@H](CCCCN)NC(=O)[C@H](CCCNC(=N)N)NC(=O)CNC(=O)[C@@H](N)Cc1ccc(O)cc1)C(=O)O [CR],"EV71 viral load in mice, in words",EV71 [1]; 10 mg/kg i.p. every 12 h for 5 days vs PBS,can significantly reduce the EV71 viral load in mice
same,Number of EV71 virus copy in muscle tissue (Copies/g),"EV71 [1]; 2-day-old ICR mice, EV71 i.p., 10 mg/kg polypeptide i.p. every 12 h for 5 days, individual animals, 10 mg/kg",1.88e+007 Copies/g and 1.122e+007 Copies/g and 1.738e+007 Copies/g and 9852432.0000 Copies/g
same,"CVA16 viral load in mice, in words",CVA16,can significantly reduce the viral load of CVA16 in mice
same,Virus inhibition rate (%),EV71 [2]; 0.15625 μM,−4.346% and −7.143% and −8.595%
same,Virus inhibition rate (%),EV71 [2]; 0.625 μM,16.42% and 7.119% and 16.77%
same,Virus inhibition rate (%),EV71 [2]; 1.25 μM,50.8% and 47.5% and 45.63%
same,Virus inhibition rate (%),EV71 [2]; 2.5 μM,78.26% and 70.5% and 64.43%
same,Virus inhibition rate (%),EV71 [2]; 5 μM,74.47% and 71.5% and 69.26%
same,IC50,EV71 [2]; read-out: IC50 against EV71 by CCK8 method,1.7 µM
